Experimental data: article PMC4882560, “Polyketides from the Mangrove-Derived Endophytic Fungus Nectria sp. HN001 and Their α-Glucosidase Inhibitory Activity” (Marine Drugs, 2016)

Molecular target: α-Glucosidase from Saccharomyces cerevisiae
Assay: In vitro α-glucosidase inhibitory activity (UV absorbance at 405 nm, p-nitrophenyl glycoside substrate)
Type: biochemical
Details: for IC50: mean ± SD from three parallel measurements, phosphate buffer pH 7.0, 37 °C, absorbance at 405 nm, read-out: IC50, inhibitory effects against α-glucosidase; for α-glucosidase inhibitory activity (result in words): compared to positive control acarbose
Protocol: Optical rotations were measured on a Bellingham-Stanley ADP 440+ polarimeter at 25 °C. IR data were recorded on a Nicolet 5DX-FTIR (Thermo Fisher Scientific, Inc., Hudson, NH, USA), in KBr discs. UV data were recorded on a Shimadzu UV-240 spectrophotometer (Shimadzu, Kyoto, Japan). The ^1H NMR (500 MHz), ^13C NMR (125 MHz), and 2D NMR spectra were obtained on a Bruker AVANCE-500 (Bruker BioSpin Corporation, Billerica, MA, USA) using TMS as an internal reference. HRESIMS were acquired on a Thermofisher LTQ Orbitrp Elite LC-MS spectrometer (Thermo Fisher Scientific, Inc., Hudson, NH, USA), and the ESIMS data were measured on a Micro Mass Q-TOF spectrometer (Waters Corporation, Milford, MA, USA). TLC analysis was carried out on silica gel plates (Marine Chemical Ltd., Qingdao, China). RP-C18 silica gel (Fuji, 40–75 μm, Fuji Silysia Chemical Ltd., Kasugai, Japan), Silica gel (200–300 mesh, Marine Chemical Ltd., Qingdao, China), High silica gel (H, Marine Chemical Ltd., Qingdao, China), and Sephadex LH-20 (GE Healthcare Bio-Sciences AB, Stockholm, Sweden) were used for column chromatography (CC).
An assay of α-glucosidase inhibitory activity was performed using a reported method, with slight modifications. All the assays were performed using 0.01 M KH2PO4-K2HPO4 buffers, pH 7.0, and a Bio-Rad iMark microplate reader (Bio-Rad Laboratories, Inc., Kyoto, Japan). Enzyme solution was prepared to give 2.0 Units/mL in 2 mL aliquots. The assay medium contained phosphate buffer, pH 7.0 (130 μL), 10 μL of enzyme solution, 20 μL of DMSO or inhibitor (dissolved in DMSO), and 40 μL of substrate (p-nitrophenyl glycoside, 3 mg/mL). The substrate was added to the assay medium containing enzyme and buffer with inhibitor added after 15 min of incubation time at 37 °C. The activity was determined by measuring the increase in absorbance at 405 nm for a 1 min interval. Calculations were performed according to the equation: η (%) = [(B − S)/B] × 100%
(B stands for the assay medium with DMSO; S stands for the assay medium with inhibitor). All measurements were done in triplicate from two independent experiments. The reported IC50 was the average value of two independent experiments.

Row | Structure (SMILES) | IC50 [µM] | α-glucosidase inhibitory activity (result in words)
1 | CC(/C=C/C(=O)O)=C\C=C\C(C)=C\C(C)=C\C(=O)O [Compound 1, 2E, 4E, 6E, 8E, 10E-3,5,9-trimethyldodeca-2,4,6,8, 10-pentaenedioic acid] | 121.8 ± 0.4 | –
2 | COC(=O)/C=C/C(C)=C/C=C/C(C)=C/C(C)=C/C(=O)O [Compound 2, 2E, 4E, 6E, 8E, 10E-12-methoxy-3,5,9-trimethyl-12-oxododeca-2,4,6,8, 10-pentaenoic acid] | 23.5 ± 0.3 | significant inhibitory activity
3 | COC(=O)/C=C/C(C)=C/C=C/C(C)=C\C(C)=C\C(=O)O [Compound 3, 2E, 4Z, 6E, 8E, 10E-12-methoxy-3,5,9-trimethyl-12-oxododeca-2,4,6,8, 10-pentaenoic acid] | 42.3 ± 0.2 | significant inhibitory activity
4 | C[C@H](O)C[C@@H](O)Cc1cc2cc(O)cc(O)c2c(=O)o1 [Compound 4, 12-epicitreoisocoumarinol] | 343.7 ± 1 | –
5 | C[C@@H](O)C[C@@H](O)Cc1cc2cc(O)cc(O)c2c(=O)o1 [Compound 5, citreoisocoumarinol] | 392.5 ± 1.7 | –
6 | CC(=O)C[C@@H](O)Cc1cc2cc(O)cc(O)c2c(=O)o1 [Compound 6, citreoisocoumarin] | 538.7 ± 4.3 | –
7 | Cc1cc(=O)cc(Cc2cc(O)cc(O)c2)o1 [Compound 7, macrocarpon C] | > 900 | did not display inhibitory activity
